Assay results from patent publication US20250236599A1, “LIPID NANOPARTICLES FOR OLIGONUCLEOTIDE DELIVERY” (ZIPHIUS NV, priority 2021, published 2025).

What was measured:
[1] = LNP particle size, polydispersity index and charge by Zeta Sizer; assay type: physicochemical; settings: LNP lipid:DOPE:Cholesterol:DMG-PEG 35:20:43.5:1.5, firefly luciferase saRNA; for Polydispersity Index (PI) / Z-average (nm): N/P approx. 40/1
Protocol: Cationic lipids, DOPE, Cholesterol and DMG-PEG lipid were solubilized in ethanol or DMSO at a molar ratio of 35:20:43.5:1.5 and a concentration of 100:25:20:25 μg/μL for C12-200 or 170:25:20:25 μg/μL for the comparator lipids. Lipid nanoparticles (LNP) were prepared by targeting an N/P ratio of approximately 40/1 with saRNA. Briefly, the firefly luciferase saRNA of approximately 9659 nucleotides was diluted to 0.5 mg/mL in 5 mM citrate buffer, pH 4.5. Microfluidic mixer (Ignite from Precision Nanosystems, California, USA) was used to mix the lipid solution with the saRNA aqueous solution at a ratio of about 1:3 (vol/vol) with total flow rates above 10 ml/min. The ethanol was then removed, and the external buffer replaced with 10 mM TRIS-HCL, PH 7.4, by dialysis. Finally, the lipid nanoparticles were filtered through a 0.2 μm pore sterile filter. Lipid nanoparticle particle size was 50-150 nm diameter and polydispersity index (PI) of 0.1-0.4 as determined by Zeta Sizer (Malvern Panalytical, UK). The charge of the formulation was also measured by Zeta Sizer and ranged between 20 to −20 mV.

[2] = saRNA loading / encapsulation efficiency, Quant-IT RiboGreen assay; assay type: physicochemical; settings: LNP lipid:DOPE:Cholesterol:DMG-PEG 35:20:43.5:1.5, firefly luciferase saRNA
Protocol: The saRNA loading in LNP formulations was quantified using a Quant-IT RiboGreen assay (Thermo Fisher Scientific, Waltham, Massachusetts, USA) as previously described. 14 samples were diluted tenfold in 1x Tris HCL-EDTA (TE) buffer (10 mM Tris-HCL, 1 mM EDTA, pH 7.5) with or without 2% (v/v) Triton X-100 (Sigma-Aldrich, Saint Louis, Missouri, USA). Standard solutions were also prepared in 1xTE with or without 2% (v/v) Triton X-100 to account for any variation in fluorescence. The assay was performed according to the manufacturer's protocol. Samples were loaded on a black 96-well plate and analysed for fluorescence on a microplate reader (Tecan Infinite® 200 PRO) at an excitation of 485 nm and emission at 528 nm. Encapsulation efficiency was calculated between 80-100%.

[3] = Weight evolution of the animals following administration of LNPs; assay type: in vivo; settings: female SWISS mice
Protocol: (§1) Female SWISS mice (6 weeks old) were purchased from Janvier Laboratories (Paris, France) and kept in individually ventilated cages with access to food and water ad libitum. Mice were anesthetized with isoflurane (Zoetis, Louvain-La-Neuve, Belgium) (5% for induction and 2% for maintenance) and intramuscularly injected with a total of 1 μg in 100 μL Tris-HCL (50 μL per leg) LNP-formulated luciferase saRNA (for each group n=7). The expression of the luciferase induced bioluminescence was measured via non-invasive In vivo bioluminescent imaging (In vivo Imaging System (IVIS) Lumina III, Perkin Elmer, Waltham, Massachusetts, USA), 10 minutes after subcutaneous injection of […] of D-luciferin (GoldBio, Saint Louis, Missouri, USA, #LUCK-1G) were measured in day 0 (before injection), day 1, day 3, day 5, day 7, day 10, day 15 and day 20.

[4] = system: expression of the luciferase saRNA; test: In vivo bioluminescent imaging after intramuscular injection of LNP-formulated luciferase saRNA; settings: 1 μg LNP-formulated luciferase saRNA intramuscularly, female SWISS mice
Protocol: as §1

[5] = Day 1, 1 μg LNP-formulated saRNA intramuscularly
[6] = Day 3, 1 μg LNP-formulated saRNA intramuscularly
[7] = Day 5, 1 μg LNP-formulated saRNA intramuscularly
[8] = Day 7, 1 μg LNP-formulated saRNA intramuscularly
[9] = Day 10, 1 μg LNP-formulated saRNA intramuscularly
[10] = Day 15, 1 μg LNP-formulated saRNA intramuscularly
[11] = Day 20, 1 μg LNP-formulated saRNA intramuscularly

Compound	Zetapotential (mV) [1] [mV]	Polydispersity Index (PI) [1]	Z-average (nm) [1] [nm]	Encapsulation (%) [2] [%]	Weight ([3]; Day 0) [g]	Weight [3, 5] [g]	Weight [3, 6] [g]	Weight [3, 7] [g]	Weight [3, 8] [g]	Weight [3, 9] [g]	Weight [3, 10] [g]	Weight [3, 11] [g]	Bioluminescence expression of LNPs ([4]; Day 1)	Bioluminescence expression of LNPs ([4]; Day 3)	Bioluminescence expression of LNPs ([4]; Day 5)	Bioluminescence expression of LNPs ([4]; Day 7)	Bioluminescence expression of LNPs ([4]; Day 10)	Bioluminescence expression of LNPs ([4]; Day 15)	Bioluminescence expression of LNPs ([4]; Day 20)
CCCCCCCCCCCCCCOC(=O)CCN(CCC(=O)OCCCCCCCCCCCCCC)CCN1CCN(CCN(CCC(=O)OCCCCCCCCCCCCCC)CCC(=O)OCCCCCCCCCCCCCC)CC1 [Comparator 1 (C1), reference compound]	9.07	0.16	70.96	99.03	26.56	25.99	27.21	27.59	27.09	27.17	29.43	30.11							
CCCCCCCCCCCCCCOC(=O)CCN(CCC(=O)OCCCCCCCCCCCCCC)CCN(CCC(=O)OCCCCCCCCCCCCCC)CCN1CCN(CCN(CCC(=O)OCCCCCCCCCCCCCC)CCC(=O)OCCCCCCCCCCCCCC)CC1 [Comparator 2 (C2), reference compound]	8.70	0.16	96.53	97.61	27.80	27.00	27.70	27.44	27.84	27.31	29.54	29.79	2.19E+07	8.21E+07	2.21E+08	1.62E+08	2.27E+07	2.04E+05	9.42E+04
CCCCCCC(CCCC)C(=O)OCCN(CCOC(=O)C(CCCC)CCCCCC)CCN(CCOC(=O)C(CCCC)CCCCCC)CCN1CCN(CCN(CCOC(=O)C(CCCC)CCCCCC)CCOC(=O)C(CCCC)CCCCCC)CC1 (centres unmarked) [Compound 9-26, ((2-(4-(2-((2-(bis(2-((2-butyloctanoyl)oxy)ethyl)amino)ethyl) (2-((2-butyloctanoyl)oxy)ethyl)amino)ethyl)piperazin-1-yl)ethyl)azanediyl) bis(ethane-2,1-diyl)bis(2-butyloctanoate)]	−18.67	0.28	100.07	92.78	27.91	27.31	28.51	28.46	28.44	29.13	30.50	32.44	8.16E+06	2.76E+08	6.92E+08	6.31E+08	2.23E+07	4.91E+05	7.78E+04
CCCCCCCCC(CCCCCC)C(=O)OCCN(CCOC(=O)C(CCCCCC)CCCCCCCC)CCN1CCN(CCN(CCOC(=O)C(CCCCCC)CCCCCCCC)CCOC(=O)C(CCCCCC)CCCCCCCC)CC1 (centres unmarked) [Compound 9-35, ((piperazine-1,4-diylbis(ethane-2,1-diyl))bis(azanetriyl))tetrakis(ethane-2,1-diyl)tetrakis(2-hexyldecanoate)]					30.01	30.06	30.43	29.87	30.30	31.23	32.13	32.23	8.83E+05	9.99E+07	5.92E+07	6.45E+07	5.62E+07	6.82E+05	2.44E+05
CCCCCCC(CCCC)C(=O)NCCCCCCN(CCCCCCNC(=O)C(CCCC)CCCCCC)CCN(CCCCCCNC(=O)C(CCCC)CCCCCC)CCN1CCN(CCN(CCCCCCNC(=O)C(CCCC)CCCCCC)CCCCCCNC(=O)C(CCCC)CCCCCC)CC1 (centres unmarked) [Compound 9-40, N,N'-(((2-(4-(2-((2-(bis(6-(2-butyloctanamido)hexyl)amino)ethyl) (6-(2-butyloctanamido)hexyl)amino)ethyl)piperazin-1-yl)ethyl)azanediyl)bis(hexane-6,1-diyl))bis(2-butyloctanamide)]					30.11	29.54	29.41	29.19	30.31	30.51	31.09	32.37	6.07E+07	6.79E+08	1.14E+09	8.88E+08	2.00E+07	1.32E+06	2.64E+05
CCCCCCCCCCC(O)CN(CCN1CCN(CCN(CC(O)CCCCCCCCCC)CC(O)CCCCCCCCCC)CC1)CCN(CC(O)CCCCCCCCCC)CC(O)CCCCCCCCCC (centres unmarked) [Compound C12-200, 1,1′-((2-(4-(2-((2-(bis (2-hydroxydodecyl)amino)ethyl) (2-hydroxydodecyl)amino)ethyl)piperazin-1-yl)ethyl)azanediyl) bis(dodecan-2-ol), reference compound]	9.59	0.19	94.03	97.46	28.61	27.17	28.62	28.98	28.97	29.23	30.16	31.23							
